Here are results for eleven compounds from patent US4769369A, “Anti-allergy 1(2H)-phthalazinones” (Pennwalt Corporation, priority 1986, dated 1988).

The test system of one experiment is serotonin. In words: Rat Allergic Mediator Induced Dermal Vascular Permeability Test, serotonin challenge. The format is in vivo. How it is done:
(§1) Ten minutes later, the animals are challenged by intradermally injecting 0.1 ml of a water solution of either serotonin (1 μg/ml), histamine (20 μg/ml) or bradykinin (10 μg/ml) into separate sites on the back. Five minutes following challenge the animals are killed, the skin retracted, and the mean diameter of the blue wheal and flare reaction is calculated as the difference in mean diameter between a saline control and the drug treated group, divided by the control diameter, and then multiplied times 100. Statistical analysis of the data is done using a Student T-test program. See Tables 4 (ip administration of test compound) and 5 (po administration of test compound) for results obtained with the rat allergic mediator induced dermal vascular permeability test. (Set: Serotonin; His: histamine; Bk: bradykinin)

In a further experiment the test system is bradykinin. In words: Rat Allergic Mediator Induced Dermal Vascular Permeability Test, bradykinin challenge. The experiment is classed as in vivo. The procedure:
as §1

Experiment [1] has as its system LTC4 induced contractions of the guinea pig ileum. In words: Guinea Pig Ileum Test: inhibition of LTC4-induced guinea pig smooth muscle contractions. The format is cell-based. The following applies: Cavia porcellus, 6 nanomoles LTC4. The procedure:
Four replicate, small pieces of guinea pig ileum were suspended in Kreb's physiological salt solution in a 10 ml tissue bath to a gram tension of approximately 1.0. These pieces of tissue were then chemically stimulated with 6 microliters of purified leukotriene C4 (LTC4) yielding a final concentration in the bath of 6 nanomoles. Responses (tissue contraction) were measured isometrically using a Harvard transducer and a Beckman recorder. Upon addition of the LTC4, the tissue was allowed to sit for approximately 15-30 minutes to reach maximal stimulation. The test compound dissolved in a maximum volume of 100 microliters of either saline, dimethylsulfoxide or ethanol was then added to the tissue preparation and the change in gram tension was recorded.

For experiment [2], the system named is Active Anaphylaxis Response in Male, Sprague Dawley Rats. In words: Rat Anaphylaxis Test (active anaphylaxis, paw edema). The experiment is classed as in vivo. The following applies: for Paw Volume Mean ± S.E.: in mmHg (unit assumed). The procedure: In the rat anaphylaxis test, groups consisting of 15-20 rats are intraperitoneally sensitized on day zero with 500 μg of bovine serum albumin-absorbed alum admixed with 2×10^10 killed Bordatella pertussis vaccine organisms. Fourteen days later, the test compound suspended in 0.5 to 1.0 ml of 1% Cleargel or saline (0.85% NaCl in H2 O) is administered ip or po and, one hour later, the right hind paw is injected subcutaneously with 100 μg of bovine serum albumin dissolved in 0.1 ml of saline. The paw volume is measured using a mercury plethysmometer prior to drug administration and 90 minutes post antigenic challenge. The present inhibition of edema is calculated as the difference in volume between the control and drug treated groups, divided by the control volume, and then multiplied times 100. The positive control drug, theophylline (90 mg/kg, po) is included in each assay. Statistical analysis of the data is done using an analysis of variance program. See Tables 2 and 3 for results obtained with this test.
In Tables 2 and 3, and elsewhere in this application, PR 948-257C stands for trans-6-[2-(4-methoxyphenyl)ethenyl]-2-[3-(dimethylamino)propyl]-phthalazin-1(2H)-one hydrobromide.

The subject of another experiment is histamine. In words: Rat Allergic Mediator Induced Dermal Vascular Permeability Test, histamine challenge. The experiment is classed as in vivo. The procedure:
as §1, with “See Tables 4 (ip administration of test compound) and 5 (po administration of test compound) for results obtained with the rat allergic mediator induced dermal vascular permeability test.” left out

Where [3] appears, read: Table 4 (ip administration of test compound), 1 mg/kg.
Where [4] appears, read: Table 5 (po administration of test compound), 1 mg/kg.
The mark [5] stands for this setting: Table 2, first group set, 50 mg/kg ip.
Setting [6] is: Table 2, first group set, 75 mg/kg ip.
Where [7] appears, read: Table 2, first group set, 100 mg/kg ip.
Where [8] appears, read: Table 2, second group set, 6.25 mg/kg ip.
Where [9] appears, read: Table 2, second group set, 12.5 mg/kg ip.
[10] abbreviates: Table 2, second group set, 25 mg/kg ip.
Where [11] appears, read: Table 2, third group set, 2.5 mg/kg ip.
Setting [12] is: Table 2, third group set, 4 mg/kg ip.
The mark [13] stands for this setting: Table 2, third group set, 6 mg/kg ip.
The mark [14] stands for this setting: Table 2, first group set, 90 mg/kg po, N 17.
Where [15] appears, read: Table 2, second group set, 90 mg/kg po, N 20.
The mark [16] stands for this setting: Table 2, third group set, 90 mg/kg po, N 29.

pIC50: −log10 of the molar value. Where a name gives a salt, the structure may show the parent alone.

In the case of `CN1CCC(=C2c3ccccc3C=Cc3ccccc32)CC1` [Cyproheptadine, cyproheptadine, reference compound], in the experiment on serotonin (setting [3]), the “% Inhibition, Ser” value was 74.8% and the “Wheal Measurement, Ser” value worked out at 2.8 mm. Also, in the experiment on serotonin (setting [4]), the “% Inhibition, Ser” value is reported as 95.1% and the “Wheal Measurement, Ser” value was determined as 0.5 mm. In the experiment with bradykinin (setting [3]), the “% Inhibition, Bk” value is 60.6% and the “Wheal Measurement, Bk” value was determined as 4.3 mm. Also, in the experiment with bradykinin (setting [4]), the “% Inhibition, Bk” value came out at 86.8% and the “Wheal Measurement, Bk” value came to 1.2 mm.
One may read the pIC50 as the IC50 on a negative log10 scale, so that one unit is a factor of ten. Low readings indicate a high IC50, high ones a low IC50. As for `COc1ccc(/C=C\c2ccc3c(=O)n(CCCN(C)C)ncc3c2)cc1` [Example X, Cis-6-[2-(4-methoxyphenyl)ethenyl]-2-[3-dimethylaminopropyl]phthalazin-1(2H)-one cyclohexylsulfamate], the pIC50 in experiment [1] is 4.98.
`COc1ccc(/C=C/c2ccc3c(=O)n(CCCN4CCCCC4)ncc3c2)cc1` [Example II, Trans-6-[2-(4-methoxyphenyl)ethenyl]-2-(3-piperidinopropyl)phthalazin-1(2H)-one hydrobromide] had a pIC50 in experiment [1] of 5.47.
One may read the % Inhibition as the percentage by which the read-out fell short of the control. A low value points to a response near the control. In experiment [1], `Br.COc1ccc(/C=C/c2ccc3c(=O)n(CCCN(C)C)ncc3c2)cc1` [Example XII, Trans-6-[2-(4-methoxyphenyl)ethenyl]-2-[3-(dimethylamino)propyl]-phthalazin-1(2H)-one hydrobromide] showed a pIC50 of 4.87. The “% Inhibition” value in experiment [2] (setting [5]) is 56%; in experiment [2] (setting [6]) it was 83%; in experiment [2] (setting [7]) it was 91%; in experiment [2] (setting [8]), 48%; in experiment [2] (setting [9]), 52%; in experiment [2] (setting [10]) it was 55%. Further, the “% Inhibition” value in experiment [2] (setting [11]) is “+11%”; in experiment [2] (setting [12]), “+14%”; in experiment [2] (setting [13]), 12%; in experiment [2] (Table 3, 50 mg/kg po), 14%; in experiment [2] (Table 3, 75 mg/kg po) it was 37%; in experiment [2] (Table 3, 100 mg/kg po), 54%. The “Paw Volume Mean ± S.E.” value in experiment [2] (setting [5]) was 1.7 ± 1.3; in experiment [2] (setting [6]) it was 0.7 ± 0.8; in experiment [2] (setting [7]), 0.4 ± 0.8; in experiment [2] (setting [8]), 2.2 ± 1.9; in experiment [2] (setting [9]), 2.1 ± 1.8; in experiment [2] (setting [10]), 1.9 ± 1.4. Also, the figures for the “Paw Volume Mean ± S.E.” value in experiment [2] (setting [11]), in experiment [2] (setting [12]) and in experiment [2] (setting [13]) were 4.7 ± 2.8, 4.9 ± 2.3 and 3.7 ± 2.6, respectively. Also, the “Paw Volume ± S.E.” value in experiment [2] (Table 3, 50 mg/kg po) is listed as 3.10 ± .55 mm of Hg; in experiment [2] (Table 3, 75 mg/kg po), 2.26 ± .32 mm of Hg; in experiment [2] (Table 3, 100 mg/kg po) it was 1.65 ± .36 mm of Hg. Also, the “% Inhibition, Ser” value came to 26.1% in the experiment on serotonin (Table 4, 12.5 mg/kg ip); 51.4% with serotonin (Table 4, 25 mg/kg ip); 68.5% with serotonin (Table 4, 50 mg/kg ip); 23.3% with serotonin (Table 5, 12.5 mg/kg po); 42.7% with serotonin (Table 5, 25 mg/kg po); 61.1% in the experiment on serotonin (Table 5, 50 mg/kg po). Further, the “Wheal Measurement, Ser” value in the experiment on serotonin (Table 4, 12.5 mg/kg ip) was determined as 8.2 mm; in the experiment with serotonin (Table 4, 25 mg/kg ip), 5.4 mm; in the experiment with serotonin (Table 4, 50 mg/kg ip) it was 3.5 mm; with serotonin (Table 5, 12.5 mg/kg po), 7.9 mm; with serotonin (Table 5, 25 mg/kg po), 5.9 mm; in the experiment on serotonin (Table 5, 50 mg/kg po) it was 4.0 mm. Besides, the “% Inhibition, His” value in the experiment with histamine (Table 4, 12.5 mg/kg ip) came out at 26.8%; in the experiment on histamine (Table 4, 25 mg/kg ip), 50.0%; with histamine (Table 4, 50 mg/kg ip) it was 75.9%; with histamine (Table 5, 12.5 mg/kg po) it was 17%; in the experiment with histamine (Table 5, 25 mg/kg po), 57%; in the experiment with histamine (Table 5, 50 mg/kg po) it was 71%. Besides, the “Wheal Measurement, His” value in the experiment on histamine (Table 4, 12.5 mg/kg ip) was 8.2 mm; in the experiment with histamine (Table 4, 25 mg/kg ip), 5.6 mm; in the experiment on histamine (Table 4, 50 mg/kg ip), 2.7 mm; with histamine (Table 5, 12.5 mg/kg po) it was 8.3 mm; with histamine (Table 5, 25 mg/kg po) it was 4.3 mm; with histamine (Table 5, 50 mg/kg po), 2.9 mm. Further, the “% Inhibition, Bk” value with bradykinin (Table 4, 12.5 mg/kg ip) is 32.1%; in the experiment with bradykinin (Table 4, 25 mg/kg ip), 47.7%; in the experiment on bradykinin (Table 4, 50 mg/kg ip), 74.3%; in the experiment on bradykinin (Table 5, 12.5 mg/kg po), 12.1%; in the experiment on bradykinin (Table 5, 25 mg/kg po), 48.4%; in the experiment on bradykinin (Table 5, 50 mg/kg po), 63.8%. For the same compound, the “Wheal Measurement, Bk” value in the experiment with bradykinin (Table 4, 12.5 mg/kg ip) was determined as 7.4 mm; with bradykinin (Table 4, 25 mg/kg ip), 5.7 mm; in the experiment with bradykinin (Table 4, 50 mg/kg ip) it was 2.8 mm; in the experiment on bradykinin (Table 5, 12.5 mg/kg po), 8.0 mm; in the experiment on bradykinin (Table 5, 25 mg/kg po) it was 4.7 mm; with bradykinin (Table 5, 50 mg/kg po), 3.3 mm.
Regarding `CN(C)CCn1ncc2cc(/C=C/c3ccc(O)cc3)ccc2c1=O` [Example XIV, Trans-6-[2-(4-Hydroxyphenyl)ethenyl]-2-(2-dimethylaminoethyl)-1(2H)-phthalazinone hydrochloride], the pIC50 in experiment [1] was 4.50.
The same measure, in the same setting: as for `CSc1ccc(/C=C/c2ccc3c(=O)n(CCCN(C)C)ncc3c2)cc1` [Example XI, Trans-6-[2-[4-(methylthio)phenyl]ethenyl]-2-[3-(dimethylamino)propyl]phthalazin-1(2H)-one], the figure is 5.00.
`Cn1c(=O)c2[nH]cnc2n(C)c1=O` [Theophylline, theophylline, reference compound]: the “% Inhibition” value in experiment [2] (setting [14]) worked out at 76%; in experiment [2] (setting [15]), 92%; in experiment [2] (setting [16]) it was 87%; in experiment [2] (Table 3, 90 mg/kg po), 82%. Besides, the “Paw Volume Mean ± S.E.” value in experiment [2] (setting [14]) was determined as 0.9 ± 0.7; in experiment [2] (setting [15]), 0.4 ± 0.6; in experiment [2] (setting [16]) it was 0.5 ± 0.5. In addition, in experiment [2] (Table 3, 90 mg/kg po), the “Paw Volume ± S.E.” value was 0.65 ± .2 mm of Hg.
Take `COc1ccc(/C=C/c2ccc3c(=O)n(CCN(C)C)ncc3c2)cc1` [Example III, Trans-6-[2-(4-methoxyphenyl)ethenyl]-2-[2-(dimethylamino)ethyl]-phthalazin-1(2H)-one hydrobromide]: the pIC50 in experiment [1] was 4.78.
Turning to `COc1ccc(/C=C/c2ccc3c(=O)n(CCCCN(C)C)ncc3c2)cc1` [Example IX, Trans-6-[2-(4-methoxyphenyl)ethenyl]-2-[4-dimethylamino)butyl]phthalazin-1(2H)-one bromide], in experiment [1], the pIC50 was 5.00.
The same measure, in the same setting: as for `COc1ccc(/C=C/c2ccc3c(=O)n(CCN4CCOCC4)ncc3c2)cc1` [Example IV, Trans-6-[2-(4-methoxyphenyl)ethenyl]-2-(2-morpholinoethyl)phthalazin-1(2H)-one hydrobromide], the figure is 7.00; as for `COc1ccc(CCc2ccc3c(=O)n(CCCN(C)C)ncc3c2)cc1` [Example VI, 6-[2-(4-methoxyphenyl)ethyl]-2-[3-(dimethylamino)propyl]phthalazin-1(2H)-on], 4.77.
